Laboratory results published in US12116371B2, “Substituted pyridines as irreversible inhibitors of menin-MLL interaction” (BIOMEA FUSION, INC., priority 2018, dated 2024).
Where two headings read alike, the source gives them in different places.

Tests used:
Details in all cases: for IC50: Homo sapiens
MV4-11 cells [1] = experiment: Long term proliferation assay, Cell Titer-Glo read-out; format: cell-based, human
Protocol: (§1) Compounds of invention are tested in the 5 suspension lines by 14-day long-term proliferation assay.
(§2) The compound is tested in 10-pt dose titration (client will determine the starting concentration and the dilution scheme) and the final DMSO concentration is kept at 0.2%.
(§3) On Day 0, in a flat bottom 96-well plate, add 100 μL of cells per well at the densities optimized. Prepare compounds in DMSO at 500× final concentration. Dilute the compounds with DMSO at the dilution. Dilute the compounds in media at 3× final concentration. Add 50 μL of compound or DMSO at 3× final concentration to each well. Final volume in each well is 150 μL, and final concentration of DMSO is 0.2%. Also include 3 untreated control wells, by adding 50 μL of media alone. Incubate plates for 96 hours.
(§4) To do this take the total viable cell count calculated using step: • 1. Take the average of the replicates for each dose in order to be used in splitting the cells. • 2. Use a 96 well V-bottom plate to spin down the cells to remove old media and compound to split the cells. • 3. Based on the split ratio place the proper amount of media and cells into the V-bottom plate, and spin the plate at 1100 rpm for 5 minutes. • 4. Following the spin remove the media, careful not to disturb the cell pellet. Re-suspend pellet in 100 μL fresh media, and add to a new 96-well flat bottom plate. • 5. Add fresh compound, in the same manner as Step 3). • 6. Incubate plates for 72 hours. Repeat steps 5)-10) on Day 7. • 7. Incubate plates for 96 hours. Repeat Step 5)-10) on Day 11. • 8. Incubate 72 hours and repeat step 5) to take a final count. • 9. Data Analysis
(§5) To calculate growth for days 4, 7, 11, and 14: • 1. Calculate the split factor for day 4 to 7, day 7 to 11, and day 11-14. The split factor is the viable cells/mL on Day X (either 4, 7 or 11) divided by the density the cells are being split back to. • 2. For growth of cells from day 4 to 7, multiply the day 7 viable cells/mL density by the split factor from day 4. • 3. For growth of cells from day 7 to 11, multiply the day 11 viable cells/mL density by the days 4, and 7 split factors. • 4. For growth of cells from Day 11 to 14, multiply the Day 14 viable cells/mL density by the days 4, 7, and 11 split factors. • 5. Plot growth on semi-log chart (viable cells/mL on Y axis, in log, and days on X axis). • 6. The growth inhibition was calculated with the formula ((untreated cell numbers-treated cell numbers)/untreated cell)). • 7. Calculate the IC50 for each compound in each line using XLFit (Sigmoidal Dose-Response Model, y=(Bottom+((Top-Bottom)/(1+((IC50/×)^Hill))))).

MOLM-13 cells [2] = experiment: as above; format: cell-based, human
Protocol: as §1, §2, §3, §4, §5

Panc 10.05 cells = experiment: Proliferation assay, cells in adhesion; format: cell-based
MIAPaCa-2/AMG510 cells = experiment: Proliferation assay, cells in adhesion; format: cell-based
MV4-11 cells [3] = experiment: Long term proliferation assay, InCell read-out; format: cell-based, human
Protocol: as §1, §2, §3, §4, §5

MOLM-13 cells [4] = experiment: Long term proliferation assay, InCell read-out; format: cell-based, human
Protocol: as §1, §2, §3, §4, §5

IC50 (MV4-11 cells [1]; MV4-11, 96 h, MV4-11, Day 4, Cell Titer-Glo, read-out: Day 4 IC50): 150 nM
IC50 (MV4-11 cells [1]; MV4-11, 168 h, MV4-11, Day 7, Cell Titer-Glo, read-out: Day 7 IC50): 70 nM
IC50 (MV4-11 cells [1]; MV4-11, 264 h, MV4-11, Day 11, Cell Titer-Glo, read-out: Day 11 IC50): 60 nM
IC50 (MV4-11 cells [1]; MV4-11, 336 h, MV4-11, Day 14, Cell Titer-Glo, read-out: Day 14 IC50): 50 nM
IC50 (MV4-11 cells [1]; MV4-11, MV4-11, T4, CellTiter-Glo, read-out: IC50): 150 nM
IC50 (MV4-11 cells [1]; MV4-11, MV4-11, T4, CellTiter-Glo, read-out: pIC50 (converted)): 151 nM
IC50 (MV4-11 cells [1]; MV4-11, MV4-11, T11, CellTiter-Glo, read-out: IC50): 60 nM
IC50 (MV4-11 cells [1]; MV4-11, MV4-11, T11, CellTiter-Glo, read-out: pIC50 (converted)): 56.2 nM
IC50 (MOLM-13 cells [2]; MOLM-13, 96 h, MOLM-13, Day 4, Cell Titer-Glo, read-out: Day 4 IC50): 100 nM
IC50 (MOLM-13 cells [2]; MOLM-13, 168 h, MOLM-13, Day 7, Cell Titer-Glo, read-out: Day 7 IC50): 50 nM
IC50 (MOLM-13 cells [2]; MOLM-13, 264 h, MOLM-13, Day 11, Cell Titer-Glo, read-out: Day 11 IC50): 50 nM
IC50 (MOLM-13 cells [2]; MOLM-13, 336 h, MOLM-13, Day 14, Cell Titer-Glo, read-out: Day 14 IC50): 80 nM
IC50 (MOLM-13 cells [2]; MOLM-13, MOLM-13, T4, CellTiter-Glo, read-out: IC50): 100 nM
IC50 (MOLM-13 cells [2]; MOLM-13, MOLM-13, T4, CellTiter-Glo, read-out: pIC50 (converted)): 97.7 nM
IC50 (MOLM-13 cells [2]; MOLM-13, MOLM-13, T11, CellTiter-Glo, read-out: IC50): 50 nM
IC50 (MOLM-13 cells [2]; MOLM-13, MOLM-13, T11, CellTiter-Glo, read-out: pIC50 (converted)): 47.9 nM
IC50 (Panc 10.05 cells; Panc1005, Panc 10.05, T4, read-out: IC50): 790 nM
IC50 (Panc 10.05 cells; Panc1005, Panc 10.05, T4, read-out: pIC50 (converted)): 794 nM
IC50 (Panc 10.05 cells; Panc1005, Panc 10.05, T7, read-out: IC50): 490 nM
IC50 (Panc 10.05 cells; Panc1005, Panc 10.05, T7, read-out: pIC50 (converted)): 490 nM
IC50 (Panc 10.05 cells; Panc1005, Panc 10.05, T11, read-out: IC50): 280 nM
IC50 (Panc 10.05 cells; Panc1005, Panc 10.05, T11, read-out: pIC50 (converted)): 282 nM
IC50 (MIAPaCa-2/AMG510 cells; MIA PaCa-2, MIAPaCa-2/AMG510, T4, read-out: IC50): 300 nM
IC50 (MIAPaCa-2/AMG510 cells; MIA PaCa-2, MIAPaCa-2/AMG510, T4, read-out: pIC50 (converted)): 295 nM
IC50 (MIAPaCa-2/AMG510 cells; MIA PaCa-2, MIAPaCa-2/AMG510, T7, read-out: IC50): 170 nM
IC50 (MIAPaCa-2/AMG510 cells; MIA PaCa-2, MIAPaCa-2/AMG510, T7, read-out: pIC50 (converted)): 166 nM
IC50 (MIAPaCa-2/AMG510 cells; MIAPaCa-2/AMG510, T11, read-out: IC50): 150 nM
IC50 (MIAPaCa-2/AMG510 cells; MIAPaCa-2/AMG510, T11, read-out: pIC50 (converted)): 151 nM
IC50 (MV4-11 cells [3]; MV4-11, 96 h, MV4-11, Day 4, read-out: Day 4 IC50): 170 nM
IC50 (MV4-11 cells [3]; MV4-11, 264 h, MV4-11, Day 11, read-out: Day 11 IC50): 170 nM
IC50 (MV4-11 cells [3]; MV4-11, MV4-11, T4, read-out: IC50): 170 nM
IC50 (MV4-11 cells [3]; MV4-11, MV4-11, T4, read-out: pIC50 (converted)): 174 nM
IC50 (MV4-11 cells [3]; MV4-11, MV4-11, T11, read-out: IC50): 170 nM
IC50 (MV4-11 cells [3]; MV4-11, MV4-11, T11, read-out: pIC50 (converted)): 174 nM
IC50 (MOLM-13 cells [4]; MOLM-13, 96 h, MOLM-13, Day 4, read-out: Day 4 IC50): 80 nM
IC50 (MOLM-13 cells [4]; MOLM-13, 264 h, MOLM-13, Day 11, read-out: Day 11 IC50): 90 nM
IC50 (MOLM-13 cells [4]; MOLM-13, MOLM-13, T4, read-out: IC50): 80 nM
IC50 (MOLM-13 cells [4]; MOLM-13, MOLM-13, T4, read-out: pIC50 (converted)): 77.6 nM
IC50 (MOLM-13 cells [4]; MOLM-13, MOLM-13, T11, read-out: IC50): 90 nM
IC50 (MOLM-13 cells [4]; MOLM-13, MOLM-13, T11, read-out: pIC50 (converted)): 91.2 nM
SMILES: C=CC(=O)NC1CCCN(Cc2ccnc(C(=O)Nc3ccc(-c4cc5c(N6CCOCC6)ncnc5[nH]4)cc3)c2)C1 (stereo not drawn) [Compound 10]
% max (MV4-11 cells [1]; MV4-11, T4, CellTiter-Glo): 99%
% max (MV4-11 cells [1]; MV4-11, T11, CellTiter-Glo): 99%
% max (MOLM-13 cells [2]; MOLM-13, T4, CellTiter-Glo): 98%
% max (MOLM-13 cells [2]; MOLM-13, T11, CellTiter-Glo): 99%
% max (Panc 10.05 cells; Panc 10.05, T4): 84%
% max (Panc 10.05 cells; Panc 10.05, T7): 97%
% max (Panc 10.05 cells; Panc 10.05, T11): 99%
% max (MIAPaCa-2/AMG510 cells; MIAPaCa-2/AMG510, T4): 92%
% max (MIAPaCa-2/AMG510 cells; MIAPaCa-2/AMG510, T7): 98%
% max (MIAPaCa-2/AMG510 cells; MIAPaCa-2/AMG510, T11): 99%
% max (MV4-11 cells [3]; MV4-11, T4): 90%
% max (MV4-11 cells [3]; MV4-11, T11): 90%
% max (MOLM-13 cells [4]; MOLM-13, T4): 98%
% max (MOLM-13 cells [4]; MOLM-13, T11): 98%
